Reference: ChEMBL document CHEMBL4706534, “1,2,3-Triazole-containing hybrids with potential antibacterial activity against methicillin-resistant Staphylococcus aureus (MRSA)” (Eur J Med Chem, 2020)
Values after ≈ are worked out from the molar mass of the structure shown.

How the values were obtained:
[1] = test system: Staphylococcus aureus; assay: Antibiofilm activity against methicillin-resistant Staphylococcus aureus ATCC BAA-44 incubated for 24 hrs by crystal violet-staining based assay; type: functional, organism-based; conditions: ATCC BAA-44, 24 h
[2] = test system: Staphylococcus aureus; assay: Potentiation of oxacillin-induced antibacterial activity against methicillin-resistant Staphylococcus aureus ATCC BAA-44 assessed as reduction in oxacillin MIC preincubated for 30 mins followed by oxacillin addition and measured after 16 hrs by broth microdilution method; type: functional; conditions: time 16.5 hrs
[3] = test system: Staphylococcus aureus; assay: Antibacterial activity against Methicillin-resistant Staphylococcus aureus ATCC 33591; type: functional, organism-based
[4] = test system: Enterococcus faecalis; assay: Antibacterial activity against vancomycin susceptible Enterococcus faecalis ATCC 29212; type: functional
[5] = test system: Enterococcus; assay: Antibacterial activity against vancomycin resistant Enterococcus ATCC 51299; type: functional
[6] = test system: Staphylococcus aureus; assay: Antibacterial activity against methicillin-sensitive Staphylococcus aureus ATCC 29213 by broth microdilution method; type: functional
[7] = test system: Staphylococcus aureus; assay: Antibacterial activity against methicillin-resistant Staphylococcus aureus ATCC 33591 by broth microdilution method; type: functional
[8] = test system: Staphylococcus aureus; assay: Antibacterial activity against Staphylococcus aureus ATCC 25923 by CLSI-based broth microdilution method; type: functional

SMILES: COc1ccc(-c2[nH]c(N)nc2CCCCCc2cn(C/C(C)=C\c3ccccc3)nn2)cc1
- IC50 [1]: 1340 nM
- fold change (FC) [2]: 2

SMILES: CN[C@H](CC(C)C)C(=O)N[C@@H]1Cc2ccc(c(Cl)c2)Oc2cc3cc(c2O[C@@H]2O[C@H](CO)[C@@H](O)[C@H](O)[C@H]2O[C@H]2C[C@](C)(N)[C@H](O)[C@H](C)O2)Oc2ccc(cc2Cl)[C@@H](O)[C@@H]2NC(=O)[C@H](NC(=O)[C@@H]3NC(=O)[C@H](CC(=O)O)NC1=O)c1ccc(O)c(c1)-c1c(O)cc(O)cc1[C@H](C(=O)NCCCc1cn(CCOCCOCCOCCNC(=O)[C@@H]3NC(=O)[C@H]4NC(=O)[C@H](NC(=O)[C@@H]5NC(=O)[C@H](CC(=O)O)NC(=O)[C@H](NC(=O)[C@@H](CC(C)C)NC)Cc6ccc(c(Cl)c6)Oc6cc5cc(c6O[C@@H]5O[C@H](CO)[C@@H](O)[C@H](O)[C@H]5O[C@H]5C[C@](C)(N)[C@H](O)[C@H](C)O5)Oc5ccc(cc5Cl)[C@H]4O)c4ccc(O)c(c4)-c4c(O)cc(O)cc43)nn1)NC2=O
- MIC [3]: 0.5 µg/mL (≈ 0.16 µM)
- MIC [4]: 0.5 µg/mL (≈ 0.16 µM)
- MIC [5]: 0.5 µg/mL (≈ 0.16 µM)

SMILES: CCCCCCCCOCc1cn([C@H]2C(=O)N[C@@H]3Cc4ccc(c(Cl)c4)Oc4cc5cc(c4O)Oc4ccc(cc4Cl)[C@@H](O[C@@H]4O[C@H](CO)[C@@H](O)[C@H](O)[C@H]4NC(C)=O)[C@@H]4NC(=O)[C@H](NC(=O)[C@@H]5NC(=O)[C@@H](NC3=O)c3cc(O)cc(c3)Oc3cc2ccc3O)c2ccc(O)c(c2)-c2c(O)cc(O)cc2[C@H](C(=O)O)NC4=O)nn1
- MIC [6]: 0.5 µg/mL (≈ 0.313 µM)
- MIC [7]: 0.5 µg/mL (≈ 0.313 µM)

SMILES: CN[C@H](CC(C)C)C(=O)N[C@@H]1Cc2ccc(c(Cl)c2)Oc2cc3cc(c2O[C@@H]2O[C@H](CO)[C@@H](O)[C@H](O)[C@H]2O[C@H]2C[C@](C)(N)[C@H](O)[C@H](C)O2)Oc2ccc(cc2Cl)[C@@H](O)[C@@H]2NC(=O)[C@H](NC(=O)[C@@H]3NC(=O)[C@H](CC(=O)O)NC1=O)c1ccc(O)c(c1)-c1c(O)cc(O)cc1[C@H](C(=O)NCCCCCc1cn(CCOCCOCCOCCNC(=O)[C@@H]3NC(=O)[C@H]4NC(=O)[C@H](NC(=O)[C@@H]5NC(=O)[C@H](CC(=O)O)NC(=O)[C@H](NC(=O)[C@@H](CC(C)C)NC)Cc6ccc(c(Cl)c6)Oc6cc5cc(c6O[C@@H]5O[C@H](CO)[C@@H](O)[C@H](O)[C@H]5O[C@H]5C[C@](C)(N)[C@H](O)[C@H](C)O5)Oc5ccc(cc5Cl)[C@H]4O)c4ccc(O)c(c4)-c4c(O)cc(O)cc43)nn1)NC2=O
- MIC [3]: 0.5 µg/mL (≈ 0.158 µM)
- MIC [4]: 0.5 µg/mL (≈ 0.158 µM)
- MIC [5]: 0.5 µg/mL (≈ 0.158 µM)

SMILES: CN[C@H](CC(C)C)C(=O)N[C@@H]1Cc2ccc(c(Cl)c2)Oc2cc3cc(c2O[C@@H]2O[C@H](CO)[C@@H](O)[C@H](O)[C@H]2O[C@H]2C[C@](C)(N)[C@H](O)[C@H](C)O2)Oc2ccc(cc2Cl)[C@@H](O)[C@@H]2NC(=O)[C@H](NC(=O)[C@@H]3NC(=O)[C@H](CC(=O)O)NC1=O)c1ccc(O)c(c1)-c1c(O)cc(O)cc1[C@H](C(=O)NCCCCc1cn(CCOCCOCCOCCNC(=O)[C@@H]3NC(=O)[C@H]4NC(=O)[C@H](NC(=O)[C@@H]5NC(=O)[C@H](CC(=O)O)NC(=O)[C@H](NC(=O)[C@@H](CC(C)C)NC)Cc6ccc(c(Cl)c6)Oc6cc5cc(c6O[C@@H]5O[C@H](CO)[C@@H](O)[C@H](O)[C@H]5O[C@H]5C[C@](C)(N)[C@H](O)[C@H](C)O5)Oc5ccc(cc5Cl)[C@H]4O)c4ccc(O)c(c4)-c4c(O)cc(O)cc43)nn1)NC2=O
- MIC [3]: 0.5 µg/mL (≈ 0.159 µM)
- MIC [4]: 0.5 µg/mL (≈ 0.159 µM)
- MIC [5]: 0.5 µg/mL (≈ 0.159 µM)

SMILES: CC(=O)N[C@H]1[C@H](O[C@@H]2c3ccc(c(Cl)c3)Oc3cc4cc(c3O)Oc3ccc(cc3Cl)C[C@H]3NC(=O)[C@H](n5cc(COC[C@H]6O[C@@H]7OC(C)(C)O[C@@H]7[C@H]7OC(C)(C)O[C@H]76)nn5)c5ccc(O)c(c5)Oc5cc(O)cc(c5)[C@H](NC3=O)C(=O)N[C@H]4C(=O)N[C@H]3C(=O)N[C@@H]2C(=O)N[C@@H](C(=O)O)c2cc(O)cc(O)c2-c2cc3ccc2O)O[C@H](CO)[C@@H](O)[C@@H]1O
- MIC [6]: 0.5 µg/mL (≈ 0.29 µM)
- MIC [7]: 0.5 µg/mL (≈ 0.29 µM)

SMILES: CC1(C)S[C@@H]2[C@H](NC(=O)[C@H](N)c3ccccc3)C(=O)N2[C@H]1C(=O)O [AMPICILLIN]
- MIC [8]: 4 µg/mL (≈ 11.4 µM)

SMILES: CCCCCCCCCCCC/C=C(/C)Cn1cc(CCCCCc2nc(N)[nH]c2-c2ccccc2)nn1
- IC50 [1]: 1420 nM
- fold change (FC) [2]: 2

SMILES: CC(=O)N[C@H]1[C@H](O[C@@H]2c3ccc(c(Cl)c3)Oc3cc4cc(c3O)Oc3ccc(cc3Cl)C[C@H]3NC(=O)[C@H](n5cc(COc6cccc7ccccc67)nn5)c5ccc(O)c(c5)Oc5cc(O)cc(c5)[C@H](NC3=O)C(=O)N[C@H]4C(=O)N[C@H]3C(=O)N[C@@H]2C(=O)N[C@@H](C(=O)O)c2cc(O)cc(O)c2-c2cc3ccc2O)O[C@H](CO)[C@@H](O)[C@@H]1O
- MIC [6]: 0.5 µg/mL (≈ 0.31 µM)
- MIC [7]: 0.5 µg/mL (≈ 0.31 µM)

SMILES: C/C(=C/c1ccccc1)Cn1cc(CCCCCc2nc(N)[nH]c2-c2cc(F)cc(F)c2)nn1
- IC50 [1]: 1340 nM
- fold change (FC) [2]: 2

SMILES: CC(=O)N[C@H]1[C@H](O[C@@H]2c3ccc(c(Cl)c3)Oc3cc4cc(c3O)Oc3ccc(cc3Cl)C[C@H]3NC(=O)[C@H](n5cc(CO[C@H]6[C@@H](OCc7ccccc7)[C@@H](COCc7ccccc7)O[C@@H](O[C@H]7[C@H](OCc8ccccc8)[C@@H](OCc8ccccc8)[C@H](Sc8ccccc8)O[C@@H]7COCc7ccccc7)[C@@H]6OCc6ccccc6)nn5)c5ccc(O)c(c5)Oc5cc(O)cc(c5)[C@H](NC3=O)C(=O)N[C@H]4C(=O)N[C@H]3C(=O)N[C@@H]2C(=O)N[C@@H](C(=O)O)c2cc(O)cc(O)c2-c2cc3ccc2O)O[C@H](CO)[C@@H](O)[C@@H]1O
- MIC [6]: 32 µg/mL (≈ 13.1 µM)
- MIC [7]: 32 µg/mL (≈ 13.1 µM)

SMILES: C/C(=C/c1ccccc1)Cn1cc(CCCCCc2nc(N)[nH]c2-c2ccc(F)cc2)nn1
- IC50 [1]: 1340 nM
- fold change (FC) [2]: 2

SMILES: C/C(=C/c1ccccc1)Cn1cc(CCCCCc2nc(N)[nH]c2-c2ccc(C(C)C)cc2)nn1
- IC50 [1]: 1340 nM
- fold change (FC) [2]: 2

SMILES: CN[C@H](CC(C)C)C(=O)N[C@@H]1Cc2ccc(c(Cl)c2)Oc2cc3cc(c2O[C@@H]2O[C@H](CO)[C@@H](O)[C@H](O)[C@H]2O[C@H]2C[C@](C)(N)[C@H](O)[C@H](C)O2)Oc2ccc(cc2Cl)[C@@H](O)[C@@H]2NC(=O)[C@H](NC(=O)[C@@H]3NC(=O)[C@H](CC(=O)O)NC1=O)c1ccc(O)c(c1)-c1c(O)cc(O)cc1[C@H](C(=O)NCCc1cn(CCNC(=O)[C@@H]3NC(=O)[C@H]4NC(=O)[C@H](NC(=O)[C@@H]5NC(=O)[C@H](CC(=O)O)NC(=O)[C@H](NC(=O)[C@@H](CC(C)C)NC)Cc6ccc(c(Cl)c6)Oc6cc5cc(c6O[C@@H]5O[C@H](CO)[C@@H](O)[C@H](O)[C@H]5O[C@H]5C[C@](C)(N)[C@H](O)[C@H](C)O5)Oc5ccc(cc5Cl)[C@H]4O)c4ccc(O)c(c4)-c4c(O)cc(O)cc43)nn1)NC2=O
- MIC [3]: 1.3 µg/mL (≈ 0.435 µM)

SMILES: CCCc1ccc(/C=C(/C)Cn2cc(CCCCCc3nc(N)[nH]c3-c3ccccc3)nn2)cc1
- IC50 [1]: 1420 nM
- fold change (FC) [2]: 2

SMILES: CN[C@H](CC(C)C)C(=O)N[C@@H]1Cc2ccc(c(Cl)c2)Oc2cc3cc(c2O[C@@H]2O[C@H](CO)[C@@H](O)[C@H](O)[C@H]2O[C@H]2C[C@](C)(N)[C@H](O)[C@H](C)O2)Oc2ccc(cc2Cl)[C@@H](O)[C@@H]2NC(=O)[C@H](NC(=O)[C@@H]3NC(=O)[C@H](CC(=O)O)NC1=O)c1ccc(O)c(c1)-c1c(O)cc(O)cc1[C@H](C(=O)NCCn1cc(CNC(=O)[C@@H]3NC(=O)[C@H]4NC(=O)[C@H](NC(=O)[C@@H]5NC(=O)[C@H](CC(=O)O)NC(=O)[C@H](NC(=O)[C@@H](CC(C)C)NC)Cc6ccc(c(Cl)c6)Oc6cc5cc(c6O[C@@H]5O[C@H](CO)[C@@H](O)[C@H](O)[C@H]5O[C@H]5C[C@](C)(N)[C@H](O)[C@H](C)O5)Oc5ccc(cc5Cl)[C@H]4O)c4ccc(O)c(c4)-c4c(O)cc(O)cc43)nn1)NC2=O
- MIC [3]: 1.3 µg/mL (≈ 0.437 µM)

SMILES: C/C(=C/c1ccccc1)Cn1cc(CCCCCc2nc(N)[nH]c2-c2ccc(-c3ccccc3)cc2)nn1
- IC50 [1]: 1340 nM
- fold change (FC) [2]: 2

SMILES: CN[C@H](CC(C)C)C(=O)N[C@@H]1Cc2ccc(c(Cl)c2)Oc2cc3cc(c2O[C@@H]2O[C@H](CO)[C@@H](O)[C@H](O)[C@H]2O[C@H]2C[C@](C)(N)[C@H](O)[C@H](C)O2)Oc2ccc(cc2Cl)[C@@H](O)[C@@H]2NC(=O)[C@H](NC(=O)[C@@H]3NC(=O)[C@H](CC(=O)O)NC1=O)c1ccc(O)c(c1)-c1c(O)cc(O)cc1[C@H](C(=O)NCCCn1cc(CNC(=O)[C@@H]3NC(=O)[C@H]4NC(=O)[C@H](NC(=O)[C@@H]5NC(=O)[C@H](CC(=O)O)NC(=O)[C@H](NC(=O)[C@@H](CC(C)C)NC)Cc6ccc(c(Cl)c6)Oc6cc5cc(c6O[C@@H]5O[C@H](CO)[C@@H](O)[C@H](O)[C@H]5O[C@H]5C[C@](C)(N)[C@H](O)[C@H](C)O5)Oc5ccc(cc5Cl)[C@H]4O)c4ccc(O)c(c4)-c4c(O)cc(O)cc43)nn1)NC2=O
- MIC [3]: 1.3 µg/mL (≈ 0.435 µM)

SMILES: CCCCCCCCc1cn([C@H]2C(=O)N[C@@H]3Cc4ccc(c(Cl)c4)Oc4cc5cc(c4O)Oc4ccc(cc4Cl)[C@@H](O[C@@H]4O[C@H](CO)[C@@H](O)[C@H](O)[C@H]4NC(C)=O)[C@@H]4NC(=O)[C@H](NC(=O)[C@@H]5NC(=O)[C@@H](NC3=O)c3cc(O)cc(c3)Oc3cc2ccc3O)c2ccc(O)c(c2)-c2c(O)cc(O)cc2[C@H](C(=O)O)NC4=O)nn1
- MIC [6]: 0.16 µg/mL (≈ 0.102 µM)
- MIC [7]: 0.16 µg/mL (≈ 0.102 µM)

SMILES: C/C(=C/CC1CCCCC1)Cn1cc(CCCCCc2nc(N)[nH]c2-c2ccccc2)nn1
- IC50 [1]: 1420 nM
- fold change (FC) [2]: 2

SMILES: CC(=O)N[C@H]1[C@H](O[C@@H]2c3ccc(c(Cl)c3)Oc3cc4cc(c3O)Oc3ccc(cc3Cl)C[C@H]3NC(=O)[C@H](n5cc(COc6ccccc6)nn5)c5ccc(O)c(c5)Oc5cc(O)cc(c5)[C@H](NC3=O)C(=O)N[C@H]4C(=O)N[C@H]3C(=O)N[C@@H]2C(=O)N[C@@H](C(=O)O)c2cc(O)cc(O)c2-c2cc3ccc2O)O[C@H](CO)[C@@H](O)[C@@H]1O
- MIC [6]: 0.5 µg/mL (≈ 0.32 µM)
- MIC [7]: 0.5 µg/mL (≈ 0.32 µM)
